The target in test [1] is T1, rat lung SSAO (Rattus norvegicus, UniProt O08590).
T1 construct: rat lung or human umbilical cord homogenates were prepared by chopping the freshly removed tissue; from tissue; host or cells: rat lung homogenate (1000 g supernatant)
Briefly: ED50 for rat lung SSAO after oral administration. It is filed as in vivo, Sprague Dawley rats. The settings on record: lungs excised 1, 3, 6 or 24 h later, FIG. 11, read-out: ED50 for inhibition of rat lung SSAO activity. The method, then: Groups of five Sprague Dawley rats were orally administered the indicated doses of compound I-1-Z. At 1, 3, 6 or 24 h later, the animals were sacrificed, lungs excised and SSAO activity in lung homogenates determined. Results are presented as percent inhibition of SSAO activity relative to animals that were administered PBS.

Test [2] has as its system BB (non-selective). Briefly: Receptor binding screen, [^125I][Tyr^4]bombesin. On the set-up: species or system rat. The following applies: 10 uM Concentration of Compound I-1-Z. The method, then: (§1) For Table 4 below, the specific ligand binding to the receptors is defined as the difference between the total binding and the nonspecific binding determined in the presence of an excess of unlabelled ligand. The results are expressed as a percent inhibition of control specific binding obtained in the presence of Compound I-1-Z. The IC50 values (concentration causing a half-maximal inhibition of control specific binding) and Hill coefficients (nH) were determined by non-linear regression analysis of the competition curves using Hill equation curve fitting. The inhibition constants (Ki) were calculated from the Cheng Prusoff equation (Ki=IC50/(1+(L/KD)), where L=concentration of radioligand in the assay, and KD=affinity of the radioligand for the receptor). In each experiment, the respective reference compound was tested concurrently with Compound I-1-Z in order to assess the assay suitability.

The target of test [3] is T2, D3 (h) (Homo sapiens, UniProt P35462).
T2 construct: expressed in transfected cells; host or cells: CHO cells
T2 sequence (P35462 whole entry): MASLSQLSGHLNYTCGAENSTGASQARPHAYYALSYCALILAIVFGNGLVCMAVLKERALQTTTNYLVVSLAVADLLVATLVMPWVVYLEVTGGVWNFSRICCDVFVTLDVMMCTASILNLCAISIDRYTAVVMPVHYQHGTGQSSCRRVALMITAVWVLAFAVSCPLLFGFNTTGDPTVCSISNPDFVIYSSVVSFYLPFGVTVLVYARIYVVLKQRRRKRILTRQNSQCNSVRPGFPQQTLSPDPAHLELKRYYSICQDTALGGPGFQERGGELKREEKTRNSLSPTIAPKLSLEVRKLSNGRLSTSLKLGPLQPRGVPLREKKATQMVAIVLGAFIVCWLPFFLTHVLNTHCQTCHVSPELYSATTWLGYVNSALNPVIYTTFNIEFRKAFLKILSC
Briefly: Receptor binding screen, [^3H]spiperone. The settings on record: 10 uM Concentration of Compound I-1-Z; read-out: Mean Value, percent inhibition of control specific binding: D3 (h).

Test [4] addresses T3, D5 (h) (Homo sapiens, UniProt P21918).
T3 construct: expressed in transfected cells; host or cells: GH4 cells
Briefly: Receptor binding screen, [^3H]SCH 23390. The following applies: 10 uM Concentration of Compound I-1-Z; read-out: Mean Value, percent inhibition of control specific binding: D5 (h).

The target in test [5] is T4, ETB (h) (Homo sapiens, UniProt P24530).
T4 construct: expressed in transfected cells; host or cells: CHO cells
T4 sequence (P24530 27-442): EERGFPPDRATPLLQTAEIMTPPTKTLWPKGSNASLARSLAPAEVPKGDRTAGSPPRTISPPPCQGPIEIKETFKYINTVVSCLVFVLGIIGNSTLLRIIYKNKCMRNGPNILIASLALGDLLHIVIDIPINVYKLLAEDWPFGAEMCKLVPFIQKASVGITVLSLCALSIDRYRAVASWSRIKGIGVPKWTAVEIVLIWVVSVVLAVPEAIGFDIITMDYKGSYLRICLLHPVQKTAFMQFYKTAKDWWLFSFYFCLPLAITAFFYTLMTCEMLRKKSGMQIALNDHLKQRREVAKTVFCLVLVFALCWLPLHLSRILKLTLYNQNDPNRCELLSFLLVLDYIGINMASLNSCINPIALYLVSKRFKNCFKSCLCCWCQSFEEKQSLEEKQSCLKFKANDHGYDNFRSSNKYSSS
Briefly: Receptor binding screen, [^125I]endothelin-1. The following applies: 10 uM Concentration of Compound I-1-Z; read-out: Mean Value, percent inhibition of control specific binding: ETB (h).

Test [6] addresses T5, H2 (h) (Homo sapiens, UniProt P25021).
T5 construct: expressed in transfected cells; host or cells: CHO cells
Briefly: Receptor binding screen, [^125I]APT. The settings on record: 10 uM Concentration of Compound I-1-Z; read-out: Mean Value, percent inhibition of control specific binding: H2 (h).

In test [7] the target is T6, MC4 (h) (Homo sapiens, UniProt P32245).
T6 construct: expressed in transfected cells; host or cells: CHO cells
T6 sequence (P32245 whole entry): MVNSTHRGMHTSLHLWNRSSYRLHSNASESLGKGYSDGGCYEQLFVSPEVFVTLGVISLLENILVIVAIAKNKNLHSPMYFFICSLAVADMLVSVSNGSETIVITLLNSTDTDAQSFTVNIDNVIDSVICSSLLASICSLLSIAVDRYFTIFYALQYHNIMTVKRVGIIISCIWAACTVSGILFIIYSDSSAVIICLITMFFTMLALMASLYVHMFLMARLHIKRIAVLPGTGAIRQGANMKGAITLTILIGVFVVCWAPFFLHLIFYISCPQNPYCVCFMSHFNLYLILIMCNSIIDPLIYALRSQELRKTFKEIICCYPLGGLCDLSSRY
Briefly: Receptor binding screen, [^125I]NDP-α-MSH. The settings on record: 10 uM Concentration of Compound I-1-Z; read-out: Mean Value, percent inhibition of control specific binding: MC4 (h).

The target in test [8] is T7, M2 (h) (Homo sapiens, UniProt P08172).
T7 construct: expressed in transfected cells; host or cells: CHO cells
T7 sequence (P08172 whole entry): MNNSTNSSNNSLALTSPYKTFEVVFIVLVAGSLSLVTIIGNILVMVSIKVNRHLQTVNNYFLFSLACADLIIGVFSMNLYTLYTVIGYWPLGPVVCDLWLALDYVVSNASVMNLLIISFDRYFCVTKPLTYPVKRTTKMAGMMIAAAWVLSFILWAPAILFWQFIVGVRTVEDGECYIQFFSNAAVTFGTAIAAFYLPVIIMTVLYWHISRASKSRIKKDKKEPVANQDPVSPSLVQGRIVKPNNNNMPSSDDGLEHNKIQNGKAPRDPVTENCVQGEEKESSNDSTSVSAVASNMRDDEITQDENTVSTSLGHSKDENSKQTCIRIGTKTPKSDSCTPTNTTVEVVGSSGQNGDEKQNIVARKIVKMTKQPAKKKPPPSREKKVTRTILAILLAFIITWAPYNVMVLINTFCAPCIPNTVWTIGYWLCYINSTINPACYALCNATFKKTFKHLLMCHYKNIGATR
Description: Receptor binding screen, [^3H]AF-DX 384. The settings on record: 10 uM Concentration of Compound I-1-Z; read-out: Mean Value, percent inhibition of control specific binding: M2 (h).

The target in test [9] is T8, M4 (h) (Homo sapiens, UniProt P08173).
T8 construct: expressed in transfected cells; host or cells: CHO cells
Briefly: Receptor binding screen, [^3H]4-DAMP. The following applies: 10 uM Concentration of Compound I-1-Z; read-out: Mean Value, percent inhibition of control specific binding: M4 (h).

Test [10] concerns the target T9, M5 (h) (Homo sapiens, UniProt P08912).
T9 construct: expressed in transfected cells; host or cells: CHO cells
Briefly: Receptor binding screen, [^3H]4-DAMP. The settings on record: 10 uM Concentration of Compound I-1-Z; read-out: Mean Value, percent inhibition of control specific binding: M5 (h).

Test [11] concerns the target T10, NK1 (h) (Homo sapiens, UniProt P25103).
T10 construct: U-373MG cells; endogenous in cells; host or cells: U-373MG cells
Briefly: Receptor binding screen, [^125I]BH-SP, U-373MG cells. The following applies: 10 uM Concentration of Compound I-1-Z; read-out: Mean Value, percent inhibition of control specific binding: NK1 (h).

The target of test [12] is T11, NK2 (h) (Homo sapiens, UniProt P21452).
T11 construct: expressed in transfected cells; host or cells: CHO cells
T11 sequence (P21452 whole entry): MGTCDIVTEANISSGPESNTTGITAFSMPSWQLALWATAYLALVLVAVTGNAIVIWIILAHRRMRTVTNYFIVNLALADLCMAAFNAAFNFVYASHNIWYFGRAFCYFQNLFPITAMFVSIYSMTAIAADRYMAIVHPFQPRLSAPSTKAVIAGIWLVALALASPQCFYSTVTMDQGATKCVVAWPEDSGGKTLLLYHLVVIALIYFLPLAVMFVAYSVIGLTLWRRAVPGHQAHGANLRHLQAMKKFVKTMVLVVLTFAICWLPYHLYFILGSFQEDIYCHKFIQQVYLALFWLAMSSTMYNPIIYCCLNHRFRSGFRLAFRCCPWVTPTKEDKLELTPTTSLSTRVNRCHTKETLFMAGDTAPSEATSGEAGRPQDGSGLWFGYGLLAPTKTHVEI
Description: Receptor binding screen, [^125I]NKA. The settings on record: 10 uM Concentration of Compound I-1-Z; read-out: Mean Value, percent inhibition of control specific binding: NK2 (h).

The target in test [13] is T12, ORL1 (h) (NOP) (Homo sapiens, UniProt P41146).
T12 construct: expressed in transfected cells; host or cells: HEK-293 cells
Briefly: Receptor binding screen, [^3H]nociceptin. The settings on record: 10 uM Concentration of Compound I-1-Z; read-out: Mean Value, percent inhibition of control specific binding: ORL1 (h) (NOP). How it is done:
as §1

For test [14], the target named is T13, PACAP (PAC1) (h) (Homo sapiens, UniProt P41586).
T13 construct: expressed in transfected cells; host or cells: CHO cells
Description: Receptor binding screen, [^125I]PACAP1-27. The settings on record: 10 uM Concentration of Compound I-1-Z; read-out: Mean Value, percent inhibition of control specific binding: PACAP (PAC1) (h).

For test [15], the target named is T14, TXA2/PGH2 (h) (TP) (Homo sapiens, UniProt P21731).
T14 construct: human platelets; endogenous in cells; host or cells: human platelets
T14 sequence (P21731 whole entry): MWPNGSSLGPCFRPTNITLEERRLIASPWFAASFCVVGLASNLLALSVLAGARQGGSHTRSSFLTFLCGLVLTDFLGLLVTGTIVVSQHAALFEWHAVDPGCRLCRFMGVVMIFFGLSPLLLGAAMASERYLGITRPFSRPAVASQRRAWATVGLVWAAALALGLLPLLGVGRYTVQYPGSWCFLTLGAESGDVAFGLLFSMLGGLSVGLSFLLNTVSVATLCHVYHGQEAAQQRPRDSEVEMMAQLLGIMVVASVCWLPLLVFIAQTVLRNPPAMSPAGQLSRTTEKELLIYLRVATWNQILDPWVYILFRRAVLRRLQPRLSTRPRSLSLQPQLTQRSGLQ
Briefly: Receptor binding screen, [^3H]SQ 29548, human platelets. The settings on record: 10 uM Concentration of Compound I-1-Z; read-out: Mean Value, percent inhibition of control specific binding: TXA2/PGH2 (h) (TP).

For test [16], the system named is P2Y. Briefly: Receptor binding screen, [^35S]dATPαS. On the set-up: species or system rat. The settings on record: 10 uM Concentration of Compound I-1-Z.
Test [17] concerns the target T15, 5-HT7 (h) (Homo sapiens, UniProt P34969).
T15 construct: expressed in transfected cells; host or cells: CHO cells
Briefly: Receptor binding screen, [^3H]LSD. The settings on record: 10 uM Concentration of Compound I-1-Z; read-out: Mean Value, percent inhibition of control specific binding: 5-HT7 (h).

Test [18] deals with sst (non-selective). Briefly: Receptor binding screen, [^125I]Tyr^11-somatostatin, AtT-20 cells. The following applies: 10 uM Concentration of Compound I-1-Z. How it is done: as §1
Test [19] concerns Cl^− channel. Briefly: Receptor binding screen, [^35S]TBPS. On the set-up: species or system rat. The following applies: 10 uM Concentration of Compound I-1-Z.

SMILES strings stand for the structures.

T10 sequence (P25103 whole entry): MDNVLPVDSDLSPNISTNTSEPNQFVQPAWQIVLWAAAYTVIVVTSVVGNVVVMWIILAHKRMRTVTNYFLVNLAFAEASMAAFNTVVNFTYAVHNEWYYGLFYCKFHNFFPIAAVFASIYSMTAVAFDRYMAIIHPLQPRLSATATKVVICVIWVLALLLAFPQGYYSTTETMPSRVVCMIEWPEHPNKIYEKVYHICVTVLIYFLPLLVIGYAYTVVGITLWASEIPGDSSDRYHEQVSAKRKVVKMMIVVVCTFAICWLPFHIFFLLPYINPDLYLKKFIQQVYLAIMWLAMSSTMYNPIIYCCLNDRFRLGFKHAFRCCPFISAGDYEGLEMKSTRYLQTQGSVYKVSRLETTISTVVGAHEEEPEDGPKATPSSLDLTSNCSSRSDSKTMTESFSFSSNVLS
T3 sequence (P21918 whole entry): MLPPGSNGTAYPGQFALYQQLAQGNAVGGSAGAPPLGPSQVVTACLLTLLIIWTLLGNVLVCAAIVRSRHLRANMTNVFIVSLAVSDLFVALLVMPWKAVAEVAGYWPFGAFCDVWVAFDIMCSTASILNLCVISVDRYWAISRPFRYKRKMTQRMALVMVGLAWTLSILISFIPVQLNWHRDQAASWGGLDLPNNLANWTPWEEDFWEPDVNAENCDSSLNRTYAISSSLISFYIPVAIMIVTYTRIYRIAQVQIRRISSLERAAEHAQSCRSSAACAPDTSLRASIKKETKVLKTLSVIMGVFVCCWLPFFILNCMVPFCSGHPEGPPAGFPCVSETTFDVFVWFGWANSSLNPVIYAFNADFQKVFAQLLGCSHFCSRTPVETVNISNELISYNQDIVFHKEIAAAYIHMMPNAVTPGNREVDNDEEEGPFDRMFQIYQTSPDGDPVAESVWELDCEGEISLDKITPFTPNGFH
T1 sequence (O08590 whole entry): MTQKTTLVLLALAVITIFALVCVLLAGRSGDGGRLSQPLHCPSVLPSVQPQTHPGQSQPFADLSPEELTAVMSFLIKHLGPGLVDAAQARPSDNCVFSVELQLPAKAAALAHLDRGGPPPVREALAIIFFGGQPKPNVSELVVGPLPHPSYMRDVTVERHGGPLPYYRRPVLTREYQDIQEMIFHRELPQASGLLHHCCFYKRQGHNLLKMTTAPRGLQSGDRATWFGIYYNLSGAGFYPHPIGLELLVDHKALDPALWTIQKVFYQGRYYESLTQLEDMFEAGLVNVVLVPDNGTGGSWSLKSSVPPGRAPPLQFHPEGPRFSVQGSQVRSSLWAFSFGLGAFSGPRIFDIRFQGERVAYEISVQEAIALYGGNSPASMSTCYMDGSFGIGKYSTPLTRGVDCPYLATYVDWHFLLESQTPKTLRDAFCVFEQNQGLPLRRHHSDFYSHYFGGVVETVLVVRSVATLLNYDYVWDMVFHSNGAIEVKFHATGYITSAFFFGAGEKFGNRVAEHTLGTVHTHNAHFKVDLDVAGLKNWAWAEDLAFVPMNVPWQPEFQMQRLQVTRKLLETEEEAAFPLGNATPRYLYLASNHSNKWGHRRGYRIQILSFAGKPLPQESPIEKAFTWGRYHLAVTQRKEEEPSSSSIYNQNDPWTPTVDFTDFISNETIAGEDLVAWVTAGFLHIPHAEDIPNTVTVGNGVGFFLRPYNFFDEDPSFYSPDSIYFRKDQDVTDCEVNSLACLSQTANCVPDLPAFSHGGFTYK
T5 sequence (P25021 whole entry): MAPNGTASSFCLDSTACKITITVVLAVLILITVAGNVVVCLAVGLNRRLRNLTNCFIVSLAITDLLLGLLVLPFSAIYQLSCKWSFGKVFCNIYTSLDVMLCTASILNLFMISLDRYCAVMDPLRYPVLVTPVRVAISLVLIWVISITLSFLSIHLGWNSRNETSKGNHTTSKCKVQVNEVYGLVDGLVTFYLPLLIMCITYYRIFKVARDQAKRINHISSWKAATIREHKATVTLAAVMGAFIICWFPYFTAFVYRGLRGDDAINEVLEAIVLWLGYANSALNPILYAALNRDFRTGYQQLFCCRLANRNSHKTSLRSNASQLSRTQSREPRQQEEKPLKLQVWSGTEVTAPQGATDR
T15 sequence (P34969 whole entry): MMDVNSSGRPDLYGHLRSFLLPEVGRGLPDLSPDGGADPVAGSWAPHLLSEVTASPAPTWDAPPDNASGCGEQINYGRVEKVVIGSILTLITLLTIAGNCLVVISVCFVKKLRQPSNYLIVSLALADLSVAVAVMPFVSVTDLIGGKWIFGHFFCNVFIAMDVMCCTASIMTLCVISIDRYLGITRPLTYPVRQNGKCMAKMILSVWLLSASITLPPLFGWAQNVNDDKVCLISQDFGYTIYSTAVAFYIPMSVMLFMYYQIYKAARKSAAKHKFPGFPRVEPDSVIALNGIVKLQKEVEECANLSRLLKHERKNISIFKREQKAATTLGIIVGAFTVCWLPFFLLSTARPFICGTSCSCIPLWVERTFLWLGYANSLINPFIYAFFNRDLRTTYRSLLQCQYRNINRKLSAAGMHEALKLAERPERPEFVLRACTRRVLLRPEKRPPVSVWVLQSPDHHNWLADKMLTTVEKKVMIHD

By ED50 is commonly meant the dose at which the effect has come halfway, by size or by number of responders. As to `COc1ccc(C/C(=C/F)CN)cc1.Cl` [Compound I-1-Z, (Z)-3-Fluoro-2-(4-methoxybenzyl)-allylamine hydrochloride], the ED50 in [1] fell in the range of 0.1 to 1 mg/kg. Besides, the “Mean Value, percent inhibition of control specific binding: BB (non-selective)” value in [2] was 21%. For the same compound, the inhibition at 10 µM in test [3] was -2%; in test [4], -10%; in test [5], -5%; in [6], 16%; in test [7] it was 8%; in test [8], 3%. In addition, the inhibition at 10 µM is 22% in [9]; 27% in test [10]; -6% in [11]; 3% in test [12]; -9% in test [13]; 5% in [14]. Also, the inhibition at 10 µM in [15] came to 4%; in test [17], 13%. Moreover, the “Mean Value, percent inhibition of control specific binding: P2Y” value in test [16] is reported as −1%. In test [18], the “Mean Value, percent inhibition of control specific binding: sst (non-selective)” value is reported as −4%. Moreover, the “Mean Value, percent inhibition of control specific binding: Cl^− channel” value in [19] is −6%.

These data come from patent publication US20110269811A1, “INHIBITORS OF SEMICARBAZIDE-SENSITIVE AMINE OXIDASE (SSAO) AND VAP-1 MEDIATED ADHESION USEFUL FOR TREATMENT AND PREVENTION OF DISEASES” (priority 2006, published 2011).
